Reference: PubChem BioAssay (NCI)
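Values below derive from 48-hour exposures of cells grown in 96-well plates, with endpoints linearly interpolated between the two concentrations bracketing the appropriate inhibition level. GI50 is the concentration that inhibits growth by half. TGI: total growth inhibition.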

Key:
Experiment in all cases: inhibition of tumour cell growth, NCI panel, 48 h
SNB-75 CNS = tested on: SNB-75 CNS
RXF 393 renal = tested on: RXF 393 renal
SK-MEL-2 melanoma = tested on: SK-MEL-2 melanoma
SR leukemia = tested on: SR leukemia
U251 CNS = tested on: U251 CNS
EKVX NSCLC = tested on: EKVX NSCLC
SF-539 CNS = tested on: SF-539 CNS
NCI-H460 lung = tested on: NCI-H460 lung
COLO 205 colon = tested on: COLO 205 colon
SF-295 CNS = tested on: SF-295 CNS
PC-3 prostate = tested on: PC-3 prostate
NCI-H23 lung = tested on: NCI-H23 lung
SNB-19 CNS = tested on: SNB-19 CNS
HOP-62 NSCLC = tested on: HOP-62 NSCLC
TK-10 renal = tested on: TK-10 renal
SK-MEL-28 melanoma = tested on: SK-MEL-28 melanoma
CAKI-1 renal = tested on: CAKI-1 renal
786-0 renal = tested on: 786-0 renal
OVCAR-3 ovarian = tested on: OVCAR-3 ovarian
HS 578T breast = tested on: HS 578T breast
SN12C renal = tested on: SN12C renal
K-562 leukemia = tested on: K-562 leukemia
BT-549 breast = tested on: BT-549 breast
UACC-257 melanoma = tested on: UACC-257 melanoma
HCC-2998 colon = tested on: HCC-2998 colon
UO-31 renal = tested on: UO-31 renal
T-47D breast = tested on: T-47D breast
UACC-62 melanoma = tested on: UACC-62 melanoma
OVCAR-5 ovarian = tested on: OVCAR-5 ovarian
HCT-15 colon = tested on: HCT-15 colon
HT29 colon = tested on: HT29 colon
MOLT-4 leukemia = tested on: MOLT-4 leukemia
NCI-H522 lung = tested on: NCI-H522 lung
SW-620 colon = tested on: SW-620 colon
SF-268 CNS = tested on: SF-268 CNS
LOX IMVI melanoma = tested on: LOX IMVI melanoma
KM12 colon = tested on: KM12 colon
ACHN renal = tested on: ACHN renal
NCI/ADR-RES ovarian = tested on: NCI/ADR-RES ovarian
SK-MEL-5 melanoma = tested on: SK-MEL-5 melanoma
DU-145 prostate = tested on: DU-145 prostate
MDA-MB-231 breast = tested on: MDA-MB-231 breast
HCT-116 colon = tested on: HCT-116 colon
MDA-MB-435 = tested on: MDA-MB-435
IGROV1 ovarian = tested on: IGROV1 ovarian
CCRF-CEM leukemia = tested on: CCRF-CEM leukemia
OVCAR-4 ovarian = tested on: OVCAR-4 ovarian
A498 renal = tested on: A498 renal
OVCAR-8 ovarian = tested on: OVCAR-8 ovarian
SK-OV-3 ovarian = tested on: SK-OV-3 ovarian
NCI-H226 lung = tested on: NCI-H226 lung
M14 melanoma = tested on: M14 melanoma
A549 NSCLC = tested on: A549 NSCLC

## ClCC[N+]12CC[N+](CCCl)(CC1)C2 (tested in a mixture with another compound)
SNB-75 CNS
  GI50: 58.6 µM
RXF 393 renal
  GI50: 85.4 µM
SK-MEL-2 melanoma
  GI50: 43.2 µM

## CC(C)(C)c1cc(C#N)cc(Br)c1OP(=O)(Oc1c(Br)cc(C#N)cc1C(C)(C)C)c1ccccc1
SR leukemia
  GI50: 10.5 µM

## ClCc1ccc(Cn2cnc3c(Cl)nc(Cl)nc32)cc1
U251 CNS
  GI50: 2.05 µM
  TGI: 3.88 µM
EKVX NSCLC
  GI50: 17.3 µM
  TGI: 31.8 µM
SF-539 CNS
  GI50: 17.1 µM
  TGI: 31.1 µM
NCI-H460 lung
  GI50: 2.39 µM
  TGI: 4.92 µM
COLO 205 colon
  GI50: 3.45 µM
  TGI: > 100 µM
SF-295 CNS
  GI50: 7.2 µM
  TGI: 19.5 µM
SNB-75 CNS
  GI50: 3.13 µM
  TGI: 9.32 µM
PC-3 prostate
  GI50: 2.7 µM
  TGI: 7.17 µM
NCI-H23 lung
  GI50: 7.62 µM
  TGI: 23.2 µM
SNB-19 CNS
  GI50: 2.5 µM
  TGI: 7.04 µM
HOP-62 NSCLC
  GI50: 2.19 µM
  TGI: 5.09 µM
TK-10 renal
  GI50: 6.68 µM
  TGI: 20.3 µM
SK-MEL-28 melanoma
  GI50: 2.69 µM
  TGI: 6.99 µM
RXF 393 renal
  GI50: 20.9 µM
  TGI: 41.5 µM
CAKI-1 renal
  GI50: 9.17 µM
  TGI: 21.3 µM
786-0 renal
  GI50: 14 µM
  TGI: 29.5 µM
OVCAR-3 ovarian
  GI50: 1.99 µM
  TGI: 4.33 µM
HS 578T breast
  GI50: 2.13 µM
  TGI: 5.77 µM
SN12C renal
  GI50: 7.18 µM
  TGI: 20.8 µM
K-562 leukemia
  GI50: 23.3 µM
  TGI: 66.5 µM
BT-549 breast
  GI50: 15.8 µM
  TGI: 29.8 µM
UACC-257 melanoma
  GI50: 16.3 µM
  TGI: 33.5 µM
SK-MEL-2 melanoma
  GI50: 19.8 µM
  TGI: 43.5 µM
HCC-2998 colon
  GI50: 10.3 µM
  TGI: 24 µM
UO-31 renal
  GI50: 19.3 µM
  TGI: 35.5 µM
T-47D breast
  GI50: 2.18 µM
  TGI: 5.44 µM
UACC-62 melanoma
  GI50: 2.06 µM
  TGI: 4.4 µM
OVCAR-5 ovarian
  GI50: 18.2 µM
  TGI: 34.5 µM
HCT-15 colon
  GI50: 1.86 µM
  TGI: 3.77 µM
HT29 colon
  GI50: 2.9 µM
  TGI: > 100 µM
MOLT-4 leukemia
  GI50: 10.4 µM
  TGI: 27.4 µM
NCI-H522 lung
  GI50: 22.4 µM
  TGI: 46.8 µM
SW-620 colon
  GI50: 3.79 µM
  TGI: 17.3 µM
SF-268 CNS
  GI50: 2.51 µM
  TGI: 5.42 µM
LOX IMVI melanoma
  GI50: 2.06 µM
  TGI: 4.13 µM
KM12 colon
  GI50: 1.8 µM
  TGI: 3.23 µM
ACHN renal
  GI50: 2.35 µM
  TGI: 5.28 µM
NCI/ADR-RES ovarian
  GI50: 16.5 µM
  TGI: > 100 µM
SK-MEL-5 melanoma
  GI50: 6.49 µM
  TGI: 19.2 µM
DU-145 prostate
  GI50: 5.69 µM
  TGI: 17.8 µM
MDA-MB-231 breast
  GI50: 1.81 µM
  TGI: 3.63 µM
HCT-116 colon
  GI50: 1.72 µM
  TGI: 3.6 µM
MDA-MB-435
  GI50: 12.6 µM
  TGI: 25.1 µM
IGROV1 ovarian
  GI50: 15.3 µM
  TGI: 30.4 µM
CCRF-CEM leukemia
  GI50: 1.94 µM
  TGI: 4.53 µM
OVCAR-4 ovarian
  GI50: 4.91 µM
  TGI: 18.8 µM
A498 renal
  GI50: 12.1 µM
  TGI: 25.1 µM
OVCAR-8 ovarian
  GI50: 20 µM
  TGI: 38.3 µM
SK-OV-3 ovarian
  GI50: 13.3 µM
  TGI: 29.6 µM
NCI-H226 lung
  GI50: 3.55 µM
  TGI: 9.63 µM
M14 melanoma
  GI50: 10.8 µM
  TGI: 24.1 µM
A549 NSCLC
  GI50: 18.6 µM
  TGI: 37.1 µM
